From ChEMBL document CHEMBL1151449, “In vitro activity of DC-159a, a new broad-spectrum fluoroquinolone, compared with that of other agents against drug-susceptible and -resistant pneumococci” (2008)
Converted amounts (≈) assume the structure as drawn.

How the values were obtained:
Format in all cases: functional
Streptococcus pneumoniae [1] = experiment: Antibacterial activity against penicillin-resistant Streptococcus pneumoniae […] by agar dilution method
Streptococcus pneumoniae [2] = experiment: Antibacterial activity against Streptococcus pneumoniae HMC 1149 harboring S81F and S79Y mutation in quinolone-resistant determining regions of GyrA and ParC genes respectively showing efflux to ciprofloxacin, gemifloxacin by agar dilution method
Streptococcus pneumoniae [3] = experiment: Antibacterial activity against Streptococcus pneumoniae HMC 2527 harboring S81Y mutation in quinolone-resistant determining regions of GyrA gene, S79F, K137N mutation in QRDR of ParC gene and I460V mutation in QRDR of ParE gene by agar dilution method
Streptococcus pneumoniae [4] = experiment: Antibacterial activity against quinolone-susceptible Streptococcus pneumoniae ATCC 49619 by agar dilution method
Streptococcus pneumoniae [5] = experiment: Antibacterial activity against Streptococcus pneumoniae HMC 1058 harboring S79F, K137N mutation in quinolone-resistant determining regions of ParC gene and 460V mutation in QRDR of ParE gene by agar dilution method
Streptococcus pneumoniae [6] = experiment: (§1) Antibacterial activity against penicillin-resistant and quinolone-susceptible Streptococcus pneumoniae HMC 3583 expressing mefA and harboring S81F mutation in quinolone-resistant determining regions of GyrA gene, D83N mutation in QRDR of ParC gene and I460V mutation in QRDR of ParE gene after 49 passages with DC-159a measured after 10 daily antibiotic-free subculturing by multi-step resistance selection technique
Streptococcus pneumoniae [7] = experiment: Antibacterial activity against Streptococcus pneumoniae HMC 1055 harboring S81F mutation in quinolone-resistant determining regions of GyrA gene, S79F, K137N mutation in QRDR of ParC gene and I460V mutation in QRDR of ParE gene by agar dilution method
Streptococcus pneumoniae [8] = experiment: as §1, with “GyrA” for “GyrA gene, D83N mutation in QRDR of ParC”, “I460V, D435N” for “I460V”, “46” for “49”, “gatifloxacin” for “DC-159a”
Streptococcus pneumoniae [9] = experiment: Antibacterial activity against Streptococcus pneumoniae HMC 1060 harboring S81F mutation in quinolone-resistant determining regions of GyrA gene, S79F, K137N mutation in QRDR of ParC gene and I460V mutation in QRDR of ParE gene by agar dilution method
Streptococcus pneumoniae [10] = experiment: as §1, with “penicillin-, macrolide-” for “penicillin-resistant”, “63” for “3583 expressing mefA and”, “D83Y” for “D83N”, “34” for “49”, “gemifloxacin” for “DC-159a”
Streptococcus pneumoniae [11] = experiment: Antibacterial activity against Streptococcus pneumoniae HMC 1076 harboring S81F mutation in quinolone-resistant determining regions of GyrA gene, D83N mutation in QRDR of ParC gene and I460V mutation in QRDR of ParE gene by agar dilution method
Streptococcus pneumoniae [12] = experiment: Antibacterial activity against penicillin-resistant and quinolone-susceptible Streptococcus pneumoniae HMC 228 expressing ermB by broth microdilution method
Streptococcus pneumoniae [13] = experiment: (§2) Antibacterial activity against macrolide-, quinolone-susceptible and penicillin-intermediate Streptococcus pneumoniae HMC 100 harboring S79Y mutation in quinolone-resistant determining regions of ParC gene after 34 passages with gemifloxacin measured after 10 daily antibiotic-free subculturing by multi-step resistance selection technique
Streptococcus pneumoniae [14] = experiment: Antibacterial activity against penicillin-, macrolide-susceptible and quinolone-resistant Streptococcus pneumoniae HMC 1074 harboring S81F, E85K mutation in quinolone-resistant determining regions of GyrA gene, S79F mutation in QRDR of ParC gene and I460V mutation in QRDR of ParE gene after 27 passages with gemifloxacin measured after 10 daily antibiotic-free subculturing by multi-step resistance selection technique
Streptococcus pneumoniae [15] = experiment: Antibacterial activity against Streptococcus pneumoniae HMC 1059 harboring S81F mutation in quinolone-resistant determining regions of GyrA gene, S79F, K137N mutation in QRDR of ParC gene and I460N mutation in QRDR of ParE gene by agar dilution method
Streptococcus pneumoniae [16] = experiment: as §2, with “99” for “100”, “harboring S81Y and” for “harboring”, “of GyrA and” for “of”, “genes respectively” for “gene”, “41” for “34”, “moxifloxacin” for “gemifloxacin”
Streptococcus pneumoniae [17] = experiment: (§3) Antibacterial activity against Streptococcus pneumoniae HMC 1066 harboring S81F mutation in quinolone-resistant determining regions of GyrA gene, S79F mutation in QRDR of ParC gene and I460V mutation in QRDR of ParE gene by agar dilution method
Streptococcus pneumoniae [18] = experiment: Antibacterial activity against penicillin- and quinolone-susceptible Streptococcus pneumoniae HMC 5055 expressing mefA by broth microdilution method
Streptococcus pneumoniae [19] = experiment: Antibacterial activity against azithromycin-resistant Streptococcus pneumoniae […] by agar dilution method
Streptococcus pneumoniae [20] = experiment: Antibacterial activity against quinolone-susceptible and penicillin-intermediate Streptococcus pneumoniae HMC 5048 expressing mefA after 50 passages by broth microdilution method
Streptococcus pneumoniae [21] = experiment: Antibacterial activity against penicillin-resistant and quinolone-susceptible Streptococcus pneumoniae HMC 3583 expressing mefA by broth microdilution method
Streptococcus pneumoniae [22] = experiment: Antibacterial activity against Streptococcus pneumoniae HMC 1146 harboring S81F mutation in quinolone-resistant determining regions of GyrA gene, and D435N mutation in QRDR of ParE gene by agar dilution method
Streptococcus pneumoniae [23] = experiment: Antibacterial activity against penicillin-resistant and quinolone-susceptible Streptococcus pneumoniae HMC 3583 expressing mefA and harboring I460V mutation in QRDR of ParE gene after 41 passages with gemifloxacin measured after 10 daily antibiotic-free subculturing by multi-step resistance selection technique
Streptococcus pneumoniae [24] = experiment: as §3, with “against penicillin-, macrolide-susceptible and quinolone-resistant” for “against”, “1074” for “1066”, “broth microdilution” for “agar dilution”
Streptococcus pneumoniae [25] = experiment: as §2, with “harboring S81Y and” for “harboring”, “of GyrA and” for “of”, “genes respectively” for “gene”, “42” for “34”, “levofloxacin” for “gemifloxacin”
Streptococcus pneumoniae [26] = experiment: Antibacterial activity against macrolide-, quinolone-susceptible and penicillin-intermediate Streptococcus pneumoniae HMC 99 after 50 passages by broth microdilution method
Streptococcus pneumoniae [27] = experiment: Antibacterial activity against Streptococcus pneumoniae HMC 1062 harboring S81F mutation in quinolone-resistant determining regions of GyrA gene, S79F mutation in QRDR of ParC gene and I460V mutation in QRDR of ParE gene by agar dilution method
Streptococcus pneumoniae [28] = experiment: Antibacterial activity against quinolone-resistant Streptococcus pneumoniae […] by agar dilution method
Streptococcus pneumoniae [29] = experiment: Antibacterial activity against Streptococcus pneumoniae HMC 1074 harboring S81F mutation in quinolone-resistant determining regions of GyrA gene, S79F mutation in QRDR of ParC gene and I460V mutation in QRDR of ParE gene by agar dilution method
Streptococcus pneumoniae [30] = experiment: as §1, with “228” for “3583”, “ermB” for “mefA”, “28” for “49”
Streptococcus pneumoniae [31] = experiment: Antibacterial activity against Streptococcus pneumoniae HMC 5041 harboring S81F and S79F mutation in quinolone-resistant determining regions of GyrA and ParC genes respectively by agar dilution method
Streptococcus pneumoniae [32] = experiment: as §1, with “228” for “3583”, “ermB” for “mefA”, “S79Y” for “D83N”, “36” for “49”, “moxifloxacin” for “DC-159a”

| SMILES | MIC50 (Streptococcus pneumoniae [1]) | MIC90 (Streptococcus pneumoniae [1]) | MIC (Streptococcus pneumoniae [2]) | MIC (Streptococcus pneumoniae [3]) | MIC50 (Streptococcus pneumoniae [4]) | MIC90 (Streptococcus pneumoniae [4]) | MIC (Streptococcus pneumoniae [5]) | MIC (Streptococcus pneumoniae [6]) | MIC (Streptococcus pneumoniae [7]) | MIC (Streptococcus pneumoniae [8]) | MIC (Streptococcus pneumoniae [9]) | MIC (Streptococcus pneumoniae [10]) | MIC (Streptococcus pneumoniae [11]) | MIC (Streptococcus pneumoniae [12]) | MIC (Streptococcus pneumoniae [13]) | MIC (Streptococcus pneumoniae [14]) | MIC (Streptococcus pneumoniae [15]) | MIC (Streptococcus pneumoniae [16]) | MIC (Streptococcus pneumoniae [17]) | MIC (Streptococcus pneumoniae [18]) | further results |
| --- | --- | --- | --- | --- | --- | --- | --- | --- | --- | --- | --- | --- | --- | --- | --- | --- | --- | --- | --- | --- | --- |
| COc1c(N2CC3(CC3)[C@](C)(N)C2)c(F)cc2c(=O)c(C(=O)O)cn([C@@H]3C[C@@H]3F)c12.O | 0.12 µg/mL | 0.5 µg/mL | 0.25 µg/mL | 1 µg/mL | 0.12 µg/mL | 0.12 µg/mL | 0.5 µg/mL | 1 µg/mL | 1 µg/mL | 1 µg/mL | 0.5 µg/mL | 1 µg/mL | 0.5 µg/mL | 0.12 µg/mL | 0.5 µg/mL | 4 µg/mL | 1 µg/mL | 1 µg/mL | 0.5 µg/mL | 0.12 µg/mL | MIC50 (Streptococcus pneumoniae [19]): 0.12 µg/mL; MIC90 (Streptococcus pneumoniae [19]): 0.12 µg/mL; MIC (Streptococcus pneumoniae [20]): 0.125 µg/mL; MIC (Streptococcus pneumoniae [21]): 0.12 µg/mL; MIC (Streptococcus pneumoniae [22]): 1 µg/mL; MIC (Streptococcus pneumoniae [23]): 1 µg/mL; MIC (Streptococcus pneumoniae [24]): 1 µg/mL; MIC (Streptococcus pneumoniae [25]): 1 µg/mL; MIC (Streptococcus pneumoniae [26]): 0.125 µg/mL; MIC (Streptococcus pneumoniae [27]): 1 µg/mL; MIC50 (Streptococcus pneumoniae [28]): 1 µg/mL; MIC90 (Streptococcus pneumoniae [28]): 1 µg/mL; MIC (Streptococcus pneumoniae [29]): 0.5 µg/mL; MIC (Streptococcus pneumoniae [30]): 1 µg/mL; MIC (Streptococcus pneumoniae [31]): 1 µg/mL; MIC (Streptococcus pneumoniae [32]): 1 µg/mL |
| COc1c(N2CCNC(C)C2)c(F)cc2c(=O)c(C(=O)O)cn(C3CC3)c12 (configuration not stated) [GATIFLOXACIN] | 0.5 µg/mL (≈ 1.33 µM) | 4 µg/mL (≈ 10.7 µM) | 1 µg/mL (≈ 2.66 µM) | 16 µg/mL (≈ 42.6 µM) | 0.5 µg/mL (≈ 1.33 µM) | 0.5 µg/mL (≈ 1.33 µM) | 2 µg/mL (≈ 5.33 µM) | 4 µg/mL (≈ 10.7 µM) | 8 µg/mL (≈ 21.3 µM) | 8 µg/mL (≈ 21.3 µM) | 4 µg/mL (≈ 10.7 µM) | 8 µg/mL (≈ 21.3 µM) | 4 µg/mL (≈ 10.7 µM) | 0.5 µg/mL (≈ 1.33 µM) | 4 µg/mL (≈ 10.7 µM) | 16 µg/mL (≈ 42.6 µM) | 8 µg/mL (≈ 21.3 µM) | 16 µg/mL (≈ 42.6 µM) | 4 µg/mL (≈ 10.7 µM) | 0.25 µg/mL (≈ 0.666 µM) | MIC50 (Streptococcus pneumoniae [19]): 0.5 µg/mL (≈ 1.33 µM); MIC90 (Streptococcus pneumoniae [19]): 0.5 µg/mL (≈ 1.33 µM); MIC (Streptococcus pneumoniae [20]): 0.5 µg/mL (≈ 1.33 µM); MIC (Streptococcus pneumoniae [21]): 0.25 µg/mL (≈ 0.666 µM); MIC (Streptococcus pneumoniae [22]): 4 µg/mL (≈ 10.7 µM); MIC (Streptococcus pneumoniae [23]): 2 µg/mL (≈ 5.33 µM); MIC (Streptococcus pneumoniae [24]): 4 µg/mL (≈ 10.7 µM); MIC (Streptococcus pneumoniae [25]): 8 µg/mL (≈ 21.3 µM); MIC (Streptococcus pneumoniae [26]): 0.5 µg/mL (≈ 1.33 µM); MIC (Streptococcus pneumoniae [27]): 16 µg/mL (≈ 42.6 µM); MIC50 (Streptococcus pneumoniae [28]): 8 µg/mL (≈ 21.3 µM); MIC90 (Streptococcus pneumoniae [28]): 8 µg/mL (≈ 21.3 µM); MIC (Streptococcus pneumoniae [29]): 4 µg/mL (≈ 10.7 µM); MIC (Streptococcus pneumoniae [30]): 4 µg/mL (≈ 10.7 µM); MIC (Streptococcus pneumoniae [31]): 4 µg/mL (≈ 10.7 µM); MIC (Streptococcus pneumoniae [32]): 16 µg/mL (≈ 42.6 µM) |
